Source: paper PMC3222680 (PLoS ONE, 2011)

Legend:
Type in all cases: cell-based
αK24′A β-αWT GlyR = biological target: T1, αK24′A β-αWT GlyR (Homo sapiens, UniProt P23415+P48167, K304A)
T1 construct: The α R218-Q219 and β R242-Q243 are also the joining sites for chimeras constructed between the ECD and TMD; expressed in transfected cells; host or cells: HEK293 (ATCC)
T1 sequence (P23415 29-449 isoform P23415-2 K304A): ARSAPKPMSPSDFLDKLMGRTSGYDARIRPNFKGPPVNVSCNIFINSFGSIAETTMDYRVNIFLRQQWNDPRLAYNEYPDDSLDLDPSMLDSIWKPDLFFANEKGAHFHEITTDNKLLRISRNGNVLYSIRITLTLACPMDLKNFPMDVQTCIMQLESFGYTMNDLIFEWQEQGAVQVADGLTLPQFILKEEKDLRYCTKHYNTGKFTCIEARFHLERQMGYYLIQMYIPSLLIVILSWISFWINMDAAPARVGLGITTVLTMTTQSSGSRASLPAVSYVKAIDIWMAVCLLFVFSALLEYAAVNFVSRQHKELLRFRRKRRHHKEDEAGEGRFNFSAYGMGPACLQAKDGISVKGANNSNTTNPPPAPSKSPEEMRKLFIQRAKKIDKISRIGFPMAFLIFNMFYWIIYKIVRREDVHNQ
T1 sequence (P48167+P23415 with tags, fused parts or gaps P48167:V266M/P48167:F268Y/P48167:M270L/P48167:M271I/P48167:G272Q/P48167:V273M/P48167:A275I/P48167:T277S/P48167:V282I/P48167:L286I/P48167:P292M/P48167:S295A/P48167:A296P/P48167:P300G): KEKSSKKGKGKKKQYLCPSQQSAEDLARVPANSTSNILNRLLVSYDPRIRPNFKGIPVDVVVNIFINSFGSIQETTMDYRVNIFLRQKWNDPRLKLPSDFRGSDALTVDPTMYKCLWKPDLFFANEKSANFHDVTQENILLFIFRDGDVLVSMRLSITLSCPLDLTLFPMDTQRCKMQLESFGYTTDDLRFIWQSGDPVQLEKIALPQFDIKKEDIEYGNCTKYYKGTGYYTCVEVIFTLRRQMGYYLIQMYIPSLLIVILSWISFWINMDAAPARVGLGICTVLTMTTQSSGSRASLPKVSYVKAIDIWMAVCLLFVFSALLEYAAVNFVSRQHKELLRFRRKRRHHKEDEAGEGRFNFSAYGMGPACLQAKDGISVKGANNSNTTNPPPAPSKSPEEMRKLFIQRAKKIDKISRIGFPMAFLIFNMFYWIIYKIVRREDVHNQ
Protocol: (§1) The human GlyR α1 and β subunit cDNAs were subcloned into the pcDNA3.1zeo+ (Invitrogen) or pGEMHE [44] plasmid vectors for expression in HEK293 cells or Xenopus oocytes, respectively. Site-directed mutagenesis and chimera construction were performed using the QuickChange (Stratagene, La Jolla, CA, USA) mutagenesis and multiple-template-based sequential PCR protocols, respectively.
For the β-α chimeras used for determining the effect of hyperekplexia-mimicking mutations on α1 β GlyR channel function, the Thr at the M2 6′ position was replaced by a Cys. […] Through such a modification, picrotoxin resistance was used to distinguish the heteromeric α1 β-α GlyR from the homomeric α1 GlyR when the α1 and β-α subunits were co-expressed.
(§2) The effects of the hyperekplexia-mimicking mutations, K24′A, V25′A and Y27′A, were examined on GlyRs expressed in HEK293 cells (ATCC). Details of the HEK293 cell culture, GlyR expression and electrophysiological recording of the HEK293 cells are described elsewhere. Briefly, HEK293 cells were maintained in DMEM supplemented with 10% fetal bovine serum. Cells were transfected using a calcium phosphate precipitation protocol. When co-transfecting the α1 together with the β or any other chimera subunits, their respective cDNAs were combined in a ratio of 1∶10. In addition, the pEGFP-N1 (Clontech) was co-transfected to facilitate identifying the transfected cells. […] Cells were treated with external Ringer's solution and internal CsCl solution [30]. Cells were voltage-clamped at −40 mV. When the heteromeric GlyRs were expressed, the picrotoxin sensitivity was tested to confirm that the majority of receptors are heteromers, [30].
(§3) Results are expressed as mean±standard error of the mean of three or more independent experiments. […] Statistical significance was determined using the Student's t-test.

αV25′A α-βWT GlyR = biological target: T2, αV25′A α-βWT GlyR (Homo sapiens, UniProt P23415+P48167, V305A)
T2 construct: The α R218-Q219 and β R242-Q243 are also the joining sites for chimeras constructed between the ECD and TMD; expressed in transfected cells; host or cells: HEK293 (ATCC)
T2 sequence (P23415 29-449 isoform P23415-2 V305A): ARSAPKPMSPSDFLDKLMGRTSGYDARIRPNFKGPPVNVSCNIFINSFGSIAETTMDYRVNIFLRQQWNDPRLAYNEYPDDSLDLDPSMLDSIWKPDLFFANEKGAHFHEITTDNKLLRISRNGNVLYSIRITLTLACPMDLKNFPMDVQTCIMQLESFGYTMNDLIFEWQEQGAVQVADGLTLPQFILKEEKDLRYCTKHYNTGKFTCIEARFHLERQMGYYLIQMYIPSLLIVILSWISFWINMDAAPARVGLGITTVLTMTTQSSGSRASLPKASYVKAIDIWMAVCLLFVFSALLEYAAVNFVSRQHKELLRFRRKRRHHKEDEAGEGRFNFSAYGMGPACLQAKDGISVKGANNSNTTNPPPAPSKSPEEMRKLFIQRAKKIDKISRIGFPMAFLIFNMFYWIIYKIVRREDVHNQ
T2 sequence (P23415+P48167 fused with the stated changes): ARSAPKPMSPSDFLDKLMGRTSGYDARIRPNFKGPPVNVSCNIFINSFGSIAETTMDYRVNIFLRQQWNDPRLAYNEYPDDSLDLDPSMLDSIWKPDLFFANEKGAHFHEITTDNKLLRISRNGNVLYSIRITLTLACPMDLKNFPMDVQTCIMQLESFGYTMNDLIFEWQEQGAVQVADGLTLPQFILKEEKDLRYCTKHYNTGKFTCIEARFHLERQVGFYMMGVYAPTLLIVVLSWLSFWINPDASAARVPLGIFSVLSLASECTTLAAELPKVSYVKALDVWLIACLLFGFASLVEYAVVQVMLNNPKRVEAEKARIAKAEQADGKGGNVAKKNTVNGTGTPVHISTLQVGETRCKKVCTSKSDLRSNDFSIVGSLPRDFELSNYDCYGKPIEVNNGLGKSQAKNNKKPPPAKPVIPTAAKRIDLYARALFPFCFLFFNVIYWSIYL
Protocol: as §1, §2, §3

αWT α-βK24′A GlyR = biological target: T3, αWT α-βK24′A GlyR (Homo sapiens, UniProt P23415+P48167, A277S/G282P/I253M/I257A/I264V/I268L/K322A/L252M/M248V/M255V/M274P/P278A/Q254G/S259T/Y250F)
T3 construct: The α R218-Q219 and β R242-Q243 are also the joining sites for chimeras constructed between the ECD and TMD; expressed in transfected cells; host or cells: HEK293 (ATCC)
T3 sequence (P23415 29-449 isoform P23415-2, stated change not applied): as the sequence (P23415 29-449 isoform P23415-2 V305A) above, with A277V counted along it
T3 sequence (P23415+P48167 fused with the stated changes): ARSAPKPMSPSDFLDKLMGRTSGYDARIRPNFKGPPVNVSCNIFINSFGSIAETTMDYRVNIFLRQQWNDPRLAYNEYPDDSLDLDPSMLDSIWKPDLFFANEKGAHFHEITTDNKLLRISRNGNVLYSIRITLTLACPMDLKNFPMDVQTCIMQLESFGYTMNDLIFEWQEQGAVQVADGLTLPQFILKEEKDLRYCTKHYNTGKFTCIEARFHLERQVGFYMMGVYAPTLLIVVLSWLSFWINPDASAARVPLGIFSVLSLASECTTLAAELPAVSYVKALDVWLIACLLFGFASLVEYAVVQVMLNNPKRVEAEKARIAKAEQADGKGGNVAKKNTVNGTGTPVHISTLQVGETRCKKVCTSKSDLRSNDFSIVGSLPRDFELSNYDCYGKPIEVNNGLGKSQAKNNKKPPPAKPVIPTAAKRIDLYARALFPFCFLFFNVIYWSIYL
Protocol: as §1, §2, §3

αWT αB-βV25′A GlyR = biological target: T4, αWT αB-βV25′A GlyR (Homo sapiens, UniProt P23415+P48167, A165S/A240V/A277S/A80Q/E245R/G282P/H243T/I181K/I238V/I253M/I257A/I264V/I268L/K171T/L252M/M168L/M248V/M255V/M274P/N172L/P278A/Q254G/R241I/S259T/T179R/V177T/V323A/Y250F)
T4 construct: expressed in transfected cells; host or cells: HEK293 (ATCC)
T4 sequence (P23415 29-449 isoform P23415-2, stated change not applied): as the sequence (P23415 29-449 isoform P23415-2 V305A) above, with A277V counted along it
T4 sequence (P23415+P48167 fused with the stated changes): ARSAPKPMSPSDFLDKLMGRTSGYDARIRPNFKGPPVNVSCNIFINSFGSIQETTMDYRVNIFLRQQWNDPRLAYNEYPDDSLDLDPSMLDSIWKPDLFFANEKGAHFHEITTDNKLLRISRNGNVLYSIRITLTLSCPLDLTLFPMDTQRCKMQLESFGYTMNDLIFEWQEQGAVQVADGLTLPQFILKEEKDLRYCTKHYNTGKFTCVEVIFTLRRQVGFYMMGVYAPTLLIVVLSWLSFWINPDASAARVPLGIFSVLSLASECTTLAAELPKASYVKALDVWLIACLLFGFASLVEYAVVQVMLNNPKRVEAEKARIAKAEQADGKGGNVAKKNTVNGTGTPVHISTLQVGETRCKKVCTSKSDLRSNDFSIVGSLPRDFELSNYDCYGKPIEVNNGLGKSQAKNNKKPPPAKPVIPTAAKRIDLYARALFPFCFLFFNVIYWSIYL
Protocol: as §1, §2, §3

αWT α-βY27′A GlyR = biological target: T5, αWT α-βY27′A GlyR (Homo sapiens, UniProt P23415+P48167, A277S/G282P/I253M/I257A/I264V/I268L/L252M/M248V/M255V/M274P/P278A/Q254G/S259T/Y250F/Y325A)
T5 construct: The α R218-Q219 and β R242-Q243 are also the joining sites for chimeras constructed between the ECD and TMD; expressed in transfected cells; host or cells: HEK293 cells (ATCC), pcDNA3.1zeo+
T5 sequence (P23415 29-449 isoform P23415-2, stated change not applied): as the sequence (P23415 29-449 isoform P23415-2 V305A) above, with A277V counted along it
T5 sequence (P23415+P48167 fused with the stated changes): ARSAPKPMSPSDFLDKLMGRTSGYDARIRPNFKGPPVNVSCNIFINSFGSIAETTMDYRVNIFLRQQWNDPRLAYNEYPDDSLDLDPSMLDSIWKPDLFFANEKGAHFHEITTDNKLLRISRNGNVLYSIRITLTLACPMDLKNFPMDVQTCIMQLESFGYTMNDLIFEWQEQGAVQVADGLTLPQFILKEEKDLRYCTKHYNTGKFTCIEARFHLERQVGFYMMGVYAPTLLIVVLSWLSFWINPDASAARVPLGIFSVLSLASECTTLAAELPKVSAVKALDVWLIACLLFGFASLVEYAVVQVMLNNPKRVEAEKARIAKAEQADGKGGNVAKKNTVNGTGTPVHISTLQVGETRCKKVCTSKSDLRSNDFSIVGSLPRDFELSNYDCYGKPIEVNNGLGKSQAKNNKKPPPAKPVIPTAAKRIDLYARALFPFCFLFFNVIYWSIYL
Protocol: as §1, §2, §3

αWT βV25′A GlyR = biological target: T6, αWT βV25′A GlyR (Homo sapiens, UniProt P23415+P48167, V323A)
T6 construct: expressed in transfected cells; host or cells: HEK293 (ATCC)
T6 sequence (P23415 29-449 isoform P23415-2 limits assumed, stated change not applied): as the sequence (P23415 29-449 isoform P23415-2 V305A) above, with A277V counted along it
T6 sequence (P48167 23-497 V323A): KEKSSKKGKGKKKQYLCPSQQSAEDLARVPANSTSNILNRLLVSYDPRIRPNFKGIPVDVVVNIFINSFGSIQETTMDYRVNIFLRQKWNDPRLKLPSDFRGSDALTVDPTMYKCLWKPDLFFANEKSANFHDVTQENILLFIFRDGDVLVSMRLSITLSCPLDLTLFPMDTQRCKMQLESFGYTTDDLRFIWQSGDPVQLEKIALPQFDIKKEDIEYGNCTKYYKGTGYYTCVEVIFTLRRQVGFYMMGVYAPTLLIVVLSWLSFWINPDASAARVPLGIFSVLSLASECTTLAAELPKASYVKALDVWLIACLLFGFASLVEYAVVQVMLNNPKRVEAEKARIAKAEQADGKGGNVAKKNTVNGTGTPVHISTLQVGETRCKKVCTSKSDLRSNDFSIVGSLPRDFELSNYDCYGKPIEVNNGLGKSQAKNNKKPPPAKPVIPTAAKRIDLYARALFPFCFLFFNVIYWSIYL
Protocol: as §1, §2, §3

αR19′A βA19′R GlyR = biological target: T7, αR19′A βA19′R GlyR (Homo sapiens, UniProt P23415+P48167, A317R/R299A)
T7 construct: expressed in transfected cells; host or cells: HEK293 (ATCC)
T7 sequence (P23415 29-449 isoform P23415-2 R299A limits assumed): as the sequence (P23415 29-449 isoform P23415-2 V305A) above, with R271A, A277V counted along it
T7 sequence (P48167 23-497 A317R): as the sequence (P48167 23-497 V323A) above, with A295R, A301V counted along it
Protocol: as §1, §2, §3

αWT βK24′A GlyR = biological target: T8, αWT βK24′A GlyR (Homo sapiens, UniProt P23415+P48167, K322A)
T8 construct: expressed in transfected cells; host or cells: HEK293 (ATCC)
T8 sequence (P23415 29-449 isoform P23415-2 limits assumed, stated change not applied): as the sequence (P23415 29-449 isoform P23415-2 V305A) above, with A277V counted along it
T8 sequence (P48167 23-497 K322A): as the sequence (P48167 23-497 V323A) above, with K300A, A301V counted along it
Protocol: as §1, §2, §3

[1] = αK24′A β-αWT, HEK293, with glycine at EC50 of α1 homomer
[2] = αV25′A α-βWT, HEK293, with glycine at EC50 of α1 homomer
[3] = αWT α-βK24′A, HEK293, with glycine at EC50 of α1 homomer
[4] = αWT αB-βV25′A, HEK293, with glycine at EC50 of α1 homomer
[5] = αWT α-βY27′A, HEK293, with glycine at EC50 of α1 homomer
[6] = αWT βV25′A, HEK293, with glycine at EC50 of α1 homomer
[7] = αR19′A βA19′R, HEK293, with glycine at EC50 of α1 homomer
[8] = αWT βK24′A, HEK293, with glycine at EC50 of α1 homomer

`NCC(=O)O` [glycine] showed an Imax (αK24′A β-αWT GlyR) of 8.9±1.9 nA, a nH (αK24′A β-αWT GlyR) of 2.0±0.3 and an Imax (αV25′A α-βWT GlyR) of 8.2±1.4 nA. It also gave a nH (αV25′A α-βWT GlyR) of 0.92±0.04, an Imax (αWT α-βK24′A GlyR) of 8.0±1.8 nA and a nH (αWT α-βK24′A GlyR) of 1.5±0.2. It also gave an Imax (αWT αB-βV25′A GlyR) of 9.8±4.9 nA, a nH (αWT αB-βV25′A GlyR) of 2.2±0.3 and an Imax (αWT α-βY27′A GlyR) of 6.9±3.1 nA. For the same molecule, the nH (αWT α-βY27′A GlyR) was 1.3±0.3, the Imax (αWT βV25′A GlyR) was 7.7±0.8 nA and the nH (αWT βV25′A GlyR) was 2.0±0.6. It also gave an Imax (αR19′A βA19′R GlyR) of 5.5±0.9 nA, a nH (αR19′A βA19′R GlyR) of 2.1±0.2 and an Imax (αWT βK24′A GlyR) of 5.4±1.0 nA. For the same molecule, the nH (αWT βK24′A GlyR) was 1.5±0.3.

picrotoxin [PTX] was tested, and the “10uM PTX inhibition (%)” value (αK24′A β-αWT GlyR; [1]) was 10.0±2.2%, the “100uM PTX inhibition (%)” value (αK24′A β-αWT GlyR; [1]) was 23±4% and the “10uM PTX inhibition (%)” value (αV25′A α-βWT GlyR; [2]) was 2.9±0.8%. For the same molecule, the “100uM PTX inhibition (%)” value (αV25′A α-βWT GlyR; [2]) was 21±5%, the “10uM PTX inhibition (%)” value (αWT α-βK24′A GlyR; [3]) was 5.6±1.0% and the “100uM PTX inhibition (%)” value (αWT α-βK24′A GlyR; [3]) was 35±4%. For the same molecule, the “10uM PTX inhibition (%)” value (αWT αB-βV25′A GlyR; [4]) was 8.9±2.4%, the “100uM PTX inhibition (%)” value (αWT αB-βV25′A GlyR; [4]) was 43±3% and the “10uM PTX inhibition (%)” value (αWT α-βY27′A GlyR; [5]) was 4.9±0.3%. The “100uM PTX inhibition (%)” value (αWT α-βY27′A GlyR; [5]) was 39±5%, the “10uM PTX inhibition (%)” value (αWT βV25′A GlyR; [6]) was 5.7±2.2% and the “100uM PTX inhibition (%)” value (αWT βV25′A GlyR; [6]) was 36±7%. The “10uM PTX inhibition (%)” value (αR19′A βA19′R GlyR; [7]) was 4.2±1.7%, the “100uM PTX inhibition (%)” value (αR19′A βA19′R GlyR; [7]) was 22±8% and the “10uM PTX inhibition (%)” value (αWT βK24′A GlyR; [8]) was 6.0±1.2%. For the same molecule, the “100uM PTX inhibition (%)” value (αWT βK24′A GlyR; [8]) was 35±3%.
